From PMC7179226, “Sulfonamide Inhibition Studies of the β-Class Carbonic Anhydrase CAS3 from the Filamentous Ascomycete Sordaria macrospora” (Molecules, 2020) come the findings set out here.

One assay deals with T1, CAS3 (Sordaria macrospora, UniProt F7VU04).
T1 construct: gene SMAC_03179; primers imply N-terminus (M)MPVTNEE and C-terminus KTVRVV-LE-His6
T1 sequence (F7VU04 1-174): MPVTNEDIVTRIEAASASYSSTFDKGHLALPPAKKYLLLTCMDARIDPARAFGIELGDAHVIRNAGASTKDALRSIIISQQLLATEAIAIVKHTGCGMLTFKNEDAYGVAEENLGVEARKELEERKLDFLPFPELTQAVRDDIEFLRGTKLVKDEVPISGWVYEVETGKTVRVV
The assay is described as follows: biochemical. Conditions: read-out: KI* (nM) / CAS3 ^c / β. On the procedure:
An Applied Photophysics stopped-flow instrument was used for assaying the CA catalyzed CO2 hydration activity. […] The initial rates of the CA-catalyzed CO2 hydration were followed for a period of 10–100 s for each assay. […] For each measurement, six traces of the initial 5%–10% of the reaction were used for determining the initial velocity. Then, 10-fold decreasing dilution of inhibitor solutions, ranging from 1 nM and 100 µM were employed for determining the inhibition constants. Uncatalyzed rates were determined in the same manner and subtracted from total observed rates. Stock solutions of inhibitor (0.1 mM) were prepared in distilled deionized water, and dilutions up to 1 nM were done thereafter with the assay buffer. Inhibitor and enzyme solutions were preincubated together for 15 min at room temperature before to assay for allowing for the formation of E–I complexes. The inhibition constants were obtained by non-linear least-squares methods using the Cheng–Prusoff equation, and they represent the mean from at least three different determinations. The human isoforms hCA I, II were assayed in the same conditions as above except that the working pH was 7.4 HEPES buffer with phenol red as an indicator [21, 22].
Consider `NS(=O)(=O)c1ccc(C(=O)O)cc1` [compound 18], for which the Ki is 226 ± 13 nM.
On to `NS(=O)(=O)c1ccc(CCO)cc1` [compound 17], for which the Ki was determined as 507 ± 26 nM.
On the same count and under the same terms, the value for `NS(=O)(=O)c1cc(Cl)cc(Cl)c1O` [compound 10] was 350 ± 13 nM; that for `NS(=O)(=O)c1ccc(CCNS(=O)(=O)c2ccc([N+](=O)[O-])cc2CO)cc1` [compound 21] was 95 ± 3.9 nM.
The same measure, in the same setting: the value for `Nc1ccc(S(N)(=O)=O)cc1Cl` [compound 8] was 2080 ± 61 nM; that for `Nc1ccc(S(=O)(=O)Nc2nnc(S(N)(=O)=O)s2)cc1` [compound 20] was 85 ± 2.7 nM; that for `Nc1cc(C(F)(F)F)c(S(N)(=O)=O)cc1S(N)(=O)=O` [compound 11] was 235 ± 16 nM.
`Nc1ccc(S(N)(=O)=O)cc1Br` [compound 9]: the Ki worked out at 712 ± 28 nM.
Take `NS(=O)(=O)c1cccc(S(N)(=O)=O)c1` [compound 3]: the Ki turned out to be 83 ± 6 nM.
Regarding `Nc1ccc(S(=O)(=O)NCc2ccc(S(N)(=O)=O)cc2)cc1` [compound 23], the Ki was 89 ± 3.4 nM.
Regarding `Nc1cc(Cl)c(S(N)(=O)=O)cc1S(N)(=O)=O` [compound 12], the Ki is 90 ± 5.7 nM.
Still for that read-out and setting: under `NCc1ccc(S(N)(=O)=O)cc1` [compound 5] stands 726 ± 30 nM.
Same read-out and setting: the value for `Cc1ccc(S(N)(=O)=O)cc1` [compound 4] was 560 ± 21 nM; that for `Nc1ccc(S(=O)(=O)NCCc2ccc(S(N)(=O)=O)cc2)cc1` [compound 24] was 84 ± 1.5 nM.
For `NS(=O)(=O)c1ccc(O)cc1` [compound 15], the Ki amounted to 605 ± 23 nM.
`Nc1ccc(S(N)(=O)=O)cc1F` [compound 7]: the Ki turned out to be 585 ± 23 nM.
Same read-out and setting: the value for `Nc1ccc(S(=O)(=O)Nc2ccc(S(N)(=O)=O)cc2)cc1` [compound 22] was 85 ± 2.6 nM; that for `NCCc1ccc(S(N)(=O)=O)cc1` [compound 6] was 441 ± 14 nM.
The same measure, in the same setting: under `Nc1nccc(Nc2ccc(S(N)(=O)=O)cc2)n1` [compound 19] stands 91 ± 4.4 nM.

For a further assay, the target named is T2, CAS3 (Sordaria macrospora, UniProt F7VU04).
T2 construct: gene SMAC_03179; primers imply N-terminus (M)MPVTNEE and C-terminus KTVRVV-LE-His6
In words: stopped-flow CO2 hydration inhibition assay.
Conditions: not given
Type of assay: biochemical.
Compound `NS(=O)(=O)c1cc2c(cc1Cl)NCNS2(=O)=O` [HCT] showed a Ki of 545 ± 41 nM.
On the same count and under the same terms, the value for `Cc1ccc(-c2cc(C(F)(F)F)nn2-c2ccc(S(N)(=O)=O)cc2)cc1` [CLX] was 669 ± 29 nM; that for `O=C1NS(=O)(=O)c2ccccc21` [SAC] was 191 ± 12 nM.

Staying with this assay, now noted: read-out: KI* (nM) / CAS3 ^c / β.
For `CC1(C)O[C@@H]2[C@@H](CO[C@@]3(COS(N)(=O)=O)OC(C)(C)O[C@@H]23)O1` [TPM], the Ki was determined as 363 ± 23 nM.
Same read-out and setting: under `CC(=O)N=c1sc(S(N)(=O)=O)nn1C` [MZA, methazolamide] stands 91 ± 6.2 nM; under `Cn1nc(S(N)(=O)=O)sc1=N` [compound 14, deacetylated precursor of methazolamide], 94 ± 4.1 nM.
Same read-out and setting: the value for `NS(=O)(=O)c1ccc(CO)cc1` [compound 16, 4-hydroxymethyl-benzenesulfonamide] was 82 ± 3.7 nM.
Take `NS(=O)(=O)Cc1noc2ccccc12` [ZNS]: the Ki was found to be 710 ± 40 nM.
Same read-out and setting: under `NS(=O)(=O)c1nnc(NS(=O)(=O)c2ccccc2)s1` [BZA, benzolamide] stands 54 ± 0.9 nM.
Take `NS(=O)(=O)c1ccc(S(=O)(=O)Nc2cccc3c(Cl)c[nH]c23)cc1` [IND]: the Ki turned out to be 94 ± 4.6 nM.
Consider `NS(=O)(=O)c1ccc(N2CCCCS2(=O)=O)cc1` [SLT, sulthiame], for which the Ki amounted to 4840 ± 257 nM.
For the compound `Cc1onc(-c2ccccc2)c1-c1ccc(S(N)(=O)=O)cc1` [VLX], the Ki stood at 831 ± 38 nM.
On the same count and under the same terms, the value for `Nc1nnc(S(N)(=O)=O)s1` [compound 13, deacetylated precursor of acetazolamide] was 88 ± 2.9 nM.
On the same count and under the same terms, the value for `CCN[C@H]1CN(CCCOC)S(=O)(=O)c2sc(S(N)(=O)=O)cc21` [BRZ, brinzolamide] was 61 ± 1.4 nM.
With `CCN1CCCC1CNC(=O)c1cc(S(N)(=O)=O)ccc1OC` (centres unmarked) [SLP], the Ki worked out at 493 ± 27 nM.
With `NS(=O)(=O)c1cc(Cl)c(Cl)c(S(N)(=O)=O)c1` [DCP, dichlorophnamide], the Ki is 73 ± 3 nM.
